# From publication PMC11798738, “Targeting ASK1 by CS17919 alleviates kidney‐ and liver‐related diseases in murine models” (Animal Models and Experimental Medicine, 2024)
# Entries after “also recorded” stand apart in the source; their conditions may differ. Like-named read-outs stand apart in the source and are kept apart here. Marks after values point to notes of the source that are not given here.
# How the values were obtained:
# CYP 2C8 = CYP 2C8 (Homo sapiens, UniProt P10632); test: CYP inhibition in vitro; type: in vitro ADME
# Chain of CYP 2C8 (P10632 whole entry): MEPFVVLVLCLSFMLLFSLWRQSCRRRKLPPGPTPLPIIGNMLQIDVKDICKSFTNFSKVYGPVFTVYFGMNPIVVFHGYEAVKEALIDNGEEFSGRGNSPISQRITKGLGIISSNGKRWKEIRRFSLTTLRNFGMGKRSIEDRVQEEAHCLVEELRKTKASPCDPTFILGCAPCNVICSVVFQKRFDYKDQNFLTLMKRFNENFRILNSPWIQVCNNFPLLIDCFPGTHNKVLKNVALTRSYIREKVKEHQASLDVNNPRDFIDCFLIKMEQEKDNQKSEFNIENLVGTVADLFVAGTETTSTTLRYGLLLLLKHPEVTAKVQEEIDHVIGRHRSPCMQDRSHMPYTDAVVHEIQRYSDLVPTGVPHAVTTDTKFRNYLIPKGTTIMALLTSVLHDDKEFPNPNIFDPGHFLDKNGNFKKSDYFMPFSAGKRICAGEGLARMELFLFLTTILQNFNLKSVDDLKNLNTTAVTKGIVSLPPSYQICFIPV
# CYP3A4 [1] = target: T1, CYP3A4 (Homo sapiens, UniProt P08684)
# T1 sequence (P08684 whole entry): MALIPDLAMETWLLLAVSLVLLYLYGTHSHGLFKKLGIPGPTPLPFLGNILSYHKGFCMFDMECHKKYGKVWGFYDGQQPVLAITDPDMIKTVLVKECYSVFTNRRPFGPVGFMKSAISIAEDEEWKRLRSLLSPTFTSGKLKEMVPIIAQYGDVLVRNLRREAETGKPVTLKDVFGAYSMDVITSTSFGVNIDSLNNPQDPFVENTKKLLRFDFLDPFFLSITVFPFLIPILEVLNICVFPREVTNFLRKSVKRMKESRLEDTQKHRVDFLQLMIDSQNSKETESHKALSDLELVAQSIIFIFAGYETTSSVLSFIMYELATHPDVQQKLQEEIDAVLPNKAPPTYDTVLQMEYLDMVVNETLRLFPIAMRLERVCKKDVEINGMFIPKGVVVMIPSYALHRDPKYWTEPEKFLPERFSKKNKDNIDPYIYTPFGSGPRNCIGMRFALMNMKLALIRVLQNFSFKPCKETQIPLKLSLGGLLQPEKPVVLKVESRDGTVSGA
# CYP 2D6 = CYP 2D6 (Homo sapiens, UniProt P10635); test: CYP inhibition in vitro; type: in vitro ADME
# Chain of CYP 2D6 (P10635 whole entry): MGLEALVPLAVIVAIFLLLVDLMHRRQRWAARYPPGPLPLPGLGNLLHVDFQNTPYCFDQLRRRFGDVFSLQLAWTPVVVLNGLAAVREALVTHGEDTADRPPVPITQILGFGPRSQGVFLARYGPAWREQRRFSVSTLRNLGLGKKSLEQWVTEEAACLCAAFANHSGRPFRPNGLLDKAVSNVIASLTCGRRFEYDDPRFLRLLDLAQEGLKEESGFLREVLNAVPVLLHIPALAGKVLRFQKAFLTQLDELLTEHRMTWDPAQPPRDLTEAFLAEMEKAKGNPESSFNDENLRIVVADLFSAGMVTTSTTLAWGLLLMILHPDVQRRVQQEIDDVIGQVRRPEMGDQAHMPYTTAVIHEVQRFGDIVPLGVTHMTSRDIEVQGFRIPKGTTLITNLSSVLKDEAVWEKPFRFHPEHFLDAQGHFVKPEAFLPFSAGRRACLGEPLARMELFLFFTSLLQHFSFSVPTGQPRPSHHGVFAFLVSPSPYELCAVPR
# [2] = Metabolic stability in liver microsomes; type: in vitro ADME; details: Human
# CYP3A4 [3] = target: T1, CYP3A4; test: CYP inhibition in vitro; details: read-out: CYP3A4 (Midazolam) inhibition IC50; substrate Midazolam
# CYP 2B6 = CYP 2B6 (Homo sapiens, UniProt P20813); test: CYP inhibition in vitro; type: in vitro ADME
# Chain of CYP 2B6 (P20813 whole entry): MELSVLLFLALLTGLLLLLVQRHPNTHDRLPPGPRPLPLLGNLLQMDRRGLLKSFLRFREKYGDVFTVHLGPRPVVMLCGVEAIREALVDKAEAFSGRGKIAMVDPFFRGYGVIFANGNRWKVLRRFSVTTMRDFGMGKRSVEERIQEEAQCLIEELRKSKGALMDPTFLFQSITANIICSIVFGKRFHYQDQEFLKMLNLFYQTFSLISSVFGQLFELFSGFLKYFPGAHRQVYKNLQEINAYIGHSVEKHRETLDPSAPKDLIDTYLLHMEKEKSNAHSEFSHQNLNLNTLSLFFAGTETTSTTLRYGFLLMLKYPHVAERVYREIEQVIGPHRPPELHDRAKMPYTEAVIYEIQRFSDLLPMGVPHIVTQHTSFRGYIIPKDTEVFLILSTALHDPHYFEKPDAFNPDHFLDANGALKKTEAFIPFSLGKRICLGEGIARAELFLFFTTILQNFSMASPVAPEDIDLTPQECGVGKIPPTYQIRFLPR
# NASH mouse model [4] = test: CCL4- and HFD-induced NASH mouse model; type: in vivo, C57BL/6J mice; details: CS17919 20 mg/kg
# Procedure: 41 C57BL/6J mice, male, 6–8 weeks of age, were purchased from Chengdu Dossy Experimental Animal Co. (Chengdu, China), 9 of which were assigned in the control group and fed a chow diet. The other 32 mice were fed a HFD (D12429, Research diet, USA). After 8 weeks of feeding, these mice with HFD were subcutaneously injected with CCL4 (0.1 mL/kg) twice a week. These mice were then randomly subdivided into 4 groups according to serum ALT and AST at week 12: Model (n = 8), CS17919 (n = 8), CS27109 (n = 8), and Combination (n = 8). Both the control and model groups were given the solvent mentioned above, administered orally twice a day, while CS17919 was administered twice a day by gavage at a dose of 20 mg/kg and CS27109 was administered twice a day by gavage at a dose of 10 mg/kg for 4 weeks. The body weight of each mouse was measured every 3 days during the drug intervention. All animals were fasted overnight after the last drug administration and blood was collected to isolate serum for biochemical tests including AST, ALT, TG, TC, HDL‐c, and LDL‐c. The liver of each mouse was removed, the right lobe of which was fixed in 10% formalin solution for pathological study.
# H&E staining was applied to determine scores for liver steatosis, ballooning and inflammation in the NASH model. Thin 4 μm paraffin sections of each sample were used to assess liver histology, following a standard protocol. Paraffin sections were deparaffinized and placed in Hematoxylin staining solution for 3–8 min before using tap water to elute excess Hematoxylin. Sections were stained in Eosin stain for about 1–3 min and rinsed with tap water. Finally, the slices were dehydrated and sealed. Score ranges were 0–3 for liver steatosis, 0–2 for ballooning and 0–12 for inflammation (which included scores of 0–3 for portal inflammation, 0–3 for lobular inflammation, 0–3 for piecemeal necrosis, and 0–3 for bridging necrosis).
# Sirius Red staining was applied to determine liver fibrosis in the NASH model. Thin 4 μm paraffin sections of each sample were used in this study followed the standard procedure. Sections were first stained with Hematoxylin for 5–10 min, then washed and stained with Sirius Red stain about 15–30 min. Finally, the sections were rinsed and sealed. Image‐Pro Plus 6.0 was used for analyzing the area of liver fibrosis and the percentage of the fibrosis area in each section was calculated.
# CYP 2C9 = CYP 2C9 (Homo sapiens, UniProt P11712); test: CYP inhibition in vitro; type: in vitro ADME
# Chain of CYP 2C9 (P11712 whole entry): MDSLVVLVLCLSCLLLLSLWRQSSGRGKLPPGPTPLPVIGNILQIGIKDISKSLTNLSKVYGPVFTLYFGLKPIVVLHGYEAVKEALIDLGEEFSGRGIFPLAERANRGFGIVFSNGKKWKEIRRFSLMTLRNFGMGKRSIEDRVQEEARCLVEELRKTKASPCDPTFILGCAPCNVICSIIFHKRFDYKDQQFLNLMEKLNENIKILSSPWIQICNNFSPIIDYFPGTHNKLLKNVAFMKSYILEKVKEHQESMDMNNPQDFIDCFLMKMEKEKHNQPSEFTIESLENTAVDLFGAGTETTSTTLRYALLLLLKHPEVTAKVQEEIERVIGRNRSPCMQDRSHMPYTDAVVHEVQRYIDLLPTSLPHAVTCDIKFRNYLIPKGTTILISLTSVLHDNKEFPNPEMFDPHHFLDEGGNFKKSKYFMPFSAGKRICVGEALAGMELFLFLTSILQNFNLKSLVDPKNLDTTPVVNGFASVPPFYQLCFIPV
# NASH mouse model [5] = test: CCL4- and HFD-induced NASH mouse model; type: in vivo, C57BL/6J mice; details: data not shown; model group 5/9
# CYP 2C19 = CYP 2C19 (Homo sapiens, UniProt P33261); test: CYP inhibition in vitro; type: in vitro ADME
# Chain of CYP 2C19 (P33261 whole entry): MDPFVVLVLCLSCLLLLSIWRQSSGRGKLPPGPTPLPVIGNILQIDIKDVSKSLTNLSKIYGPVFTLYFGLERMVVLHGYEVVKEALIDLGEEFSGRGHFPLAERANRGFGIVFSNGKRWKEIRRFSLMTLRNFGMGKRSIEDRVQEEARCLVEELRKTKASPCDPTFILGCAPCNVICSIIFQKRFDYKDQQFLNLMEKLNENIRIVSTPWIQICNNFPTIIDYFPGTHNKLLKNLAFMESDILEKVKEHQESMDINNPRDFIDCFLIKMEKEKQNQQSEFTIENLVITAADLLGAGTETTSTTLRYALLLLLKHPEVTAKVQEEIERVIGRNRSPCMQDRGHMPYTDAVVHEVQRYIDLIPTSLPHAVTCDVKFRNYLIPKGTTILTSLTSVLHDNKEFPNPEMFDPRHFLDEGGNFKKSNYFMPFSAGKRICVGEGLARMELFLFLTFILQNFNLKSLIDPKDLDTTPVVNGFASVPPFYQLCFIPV
# CYP 1A2 = CYP 1A2 (Homo sapiens, UniProt P05177)
# Chain of CYP 1A2 (P05177 whole entry): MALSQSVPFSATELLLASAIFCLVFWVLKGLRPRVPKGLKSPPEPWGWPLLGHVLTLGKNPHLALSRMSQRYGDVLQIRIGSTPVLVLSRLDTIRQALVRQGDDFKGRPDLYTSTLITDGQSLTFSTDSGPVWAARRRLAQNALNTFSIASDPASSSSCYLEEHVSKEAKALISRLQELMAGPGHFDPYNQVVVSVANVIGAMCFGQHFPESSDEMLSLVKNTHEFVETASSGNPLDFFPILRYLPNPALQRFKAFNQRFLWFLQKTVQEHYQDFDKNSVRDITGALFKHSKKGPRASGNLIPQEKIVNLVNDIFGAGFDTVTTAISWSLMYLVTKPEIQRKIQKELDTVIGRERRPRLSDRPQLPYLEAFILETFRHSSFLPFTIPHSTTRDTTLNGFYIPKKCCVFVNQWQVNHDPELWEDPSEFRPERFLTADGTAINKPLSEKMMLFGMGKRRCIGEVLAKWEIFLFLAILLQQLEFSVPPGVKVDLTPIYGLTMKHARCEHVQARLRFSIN
# [6] = Metabolic stability in liver microsomes; type: in vitro ADME; details: Mouse
# [7] = Metabolic stability in liver microsomes; type: in vitro ADME; details: Rat
# MRC‐5 = test: MTS cytotoxicity assay, MRC-5; type: cell-based, human; details: 72 h
# Procedure: (§1) Human embryonic kidney cells (HEK‐293A), human hepatocellular carcinoma cells (HUH7), human embryonic liver diploid cells (CCC‐HEL‐1) and human embryonic lung cells (MRC‐5) were selected for the cytotoxicity study of both drugs, using the MTS assay protocol. Cells were cultured at 37°C with 5% CO2 using an appropriate medium. […] After 72 h of incubation, 30 μL of MTS solution was added to each well, and the cells were then incubated for 2–4 h in the dark. The absorbance value of each well at 490 nm was measured using an enzymatic plate reader and the IC50 for each drug and each cell line was calculated. Cell viability and cytoxicity experiments were repeated three times.
# NASH [8] = test system: NASH; parameters: method as in PMID 32147362; details: cited from earlier work
# L02 cells = test: Cell protection in PA-stimulated L02 cells (Cell Titer-Glo viability); type: cell-based, human; details: 50 μmol/L PA, 72 h
# Procedure: L02 cells were cultured in DMEM medium (Gibco, 11 965 092, Carlsbad, CA, USA) supplemented with 20% FBS and 1× penicillin–streptomycin. L02 cells were inoculated in two 96‐well plates at 1E4 cells/well (200 μL). The following day, the cells were stimulated with 50 μmol/L PA (dissolved in ethanol to make a 200× stock solution and then added to the medium) and simultaneously incubated with different concentrations of CS17919 and GS‐4997 (CS17919 and GS‐4997 stock solutions were added to the well plates to reach a final concentration of 10–0.3 μmol/L). After 72 h of incubation, the original medium was removed, followed by the addition of 100 μL of new DMEM medium and 60 μL of Cell Titer‐Glo reagent per well. The cells were incubated for 5 min in the dark, and then transferred to a black permeable plate for detection using an enzyme plate reader (Tecan spark, Grödig, Austria).
# diabetic kidney disease = test system: diabetic kidney disease; parameters: method as in PMID 25531162; details: cited from earlier work
# [9] = test system: 5/6 nephrectomy (5/6 Nx) rat model; parameters: method as in PMID 35919527; details: GS-4997 alone; cited from earlier work
# CCC‐HEL‐1 = test: MTS cytotoxicity assay, CCC-HEL-1; type: cell-based, human; details: 72 h
# Procedure: as §1
# UUO mouse model = UUO mouse model of kidney injury and fibrosis; type: in vivo, C57BL/6J mice; details: CS17919 10 and 60 mg/kg, GS-4997 30 mg/kg, gavage twice daily, 11 days
# Procedure: 55 C57BL/6J mice, male, 6–8 weeks old were purchased from Chengdu Pharmachem Biotechnology Co. (Chengdu, China) and randomly divided into 5 groups according to their body weight: Sham (n = 10), Model (n = 15), CS17919L (10 mg/kg, n = 10), CS17919H (60 mg/kg, n = 10), and GS‐4997 (30 mg/kg, n = 10). The mice were anesthetized and fixed on the operating table, and the abdominal cortex and muscles were cut in the middle of the right side of the abdomen, and the ureter was searched for along the renal hilum. The ureter was separated using a glass split‐needle and ligated at the opening of the renal pelvis and the upper 1/3 of the ureter, and the ureter was cut between the two ligatures. Finally, the muscle and skin were closed with consecutive sutures, and animals were kept under observation until they awoke. Both the Sham and the Model group received solvent (0.2% CMC‐Na + 0.1% Tween‐80) orally twice daily. CS17919 and GS‐4997 were administered by gavage twice daily at the corresponding doses for 11 days. All treatments were started one day before surgical operation. All mice were sacrificed one day after administration with overnight fasting. Blood was collected, and serum was isolated for the analysis of urea nitrogen and creatinine. The kidney of each mouse was removed, weighed and fixed in 10% formalin solution for pathological study.
# Masson staining was applied to determine kidney fibrosis in the UUO model. Thin 4 μm paraffin sections of each sample were used in this study, which followed the standard procedure. The sections were stained with Hematoxylin staining solution for 5–10 min and then washed, followed by staining with Ponceau S‐acid fuchsin stain for around 5–10 min. The sections were treated with 1% phosphomolybdic acid and Aniline Blue solution, and finally dehydrated stepwise in alcohol and sealed. VIS7.0 software was used to analyze the area of kidney fibrosis and the percentage of the fibrosis area in the scanning area was calculated.
# UUO model = test system: UUO model; parameters: method as in PMID 37310976; details: cited from earlier work
# NASH [10] = test system: NASH; parameters: method as in PMID 28218919, PMID 31996485; details: cited from earlier work
# DKD = test system: DKD; parameters: method as in PMID 30526503, PMID 26180085, PMID 30024858; details: cited from earlier work
# [11] = 4 weeks, CS27109 10 mg/kg twice a day
# [12] = serum after 4 weeks, CS27109 10 mg/kg, gavage twice a day, mean ± SD
structure (smiles),measurement,setting,value
N#Cc1nn(-c2cc(Br)c(Oc3n[nH]c(=O)c4ccccc34)c(Br)c2)c(=O)[nH]c1=O [CS27109],IC50,CYP 2C8,> 10 µM
same,IC50,CYP3A4 [1],> 10 µM
same,IC50,CYP 2D6,> 10 µM
same,Clint in liver microsomes,[2],0.83 mL/min/kg
same,T1/2 in liver microsomes,[2],>120 min
same,IC50,CYP3A4 [3],> 10 µM
same,IC50,CYP 2B6,> 10 µM
same,Liver fibrosis area (Sirius Red staining),NASH mouse model [4]; [11],improving all pathologic features of NASH
same,Liver inflammation score (H&E),NASH mouse model [4]; [11],improving all pathologic features of NASH
same,Liver steatosis and ballooning scores (H&E),NASH mouse model [4]; [11],improving all pathologic features of NASH
same,ALT,NASH mouse model [4]; [12],68.7 ± 18.8^c U/L
same,AST,NASH mouse model [4]; [12],113.0 ± 36.2^a U/L
same,HDL‐C,NASH mouse model [4]; [12],0.665 ± 0.284 mmol/L
same,LDL‐C,NASH mouse model [4]; [12],0.040 ± 0.026^b mmol/L
same,TC,NASH mouse model [4]; [12],0.785 ± 0.277 mmol/L
same,TG,NASH mouse model [4]; [12],0.329 ± 0.341 mmol/L
same,IC50,CYP 2C9,5.1 µM
same,Occurrence of hepatocellular carcinoma (mice affected/group),NASH mouse model [5],2/8
same,IC50,CYP 2C19,> 10 µM
same,IC50,CYP 1A2,> 10 µM
same,Clint in liver microsomes,[6],7.72 mL/min/kg
same,T1/2 in liver microsomes,[6],>120 min
same,Clint in liver microsomes,[7],4.24 mL/min/kg
same,T1/2 in liver microsomes,[7],>120 min
"Cc1cc(F)c(C(=O)Nc2cccc(-c3nncn3C(C)C)n2)cc1-n1cnc(C2CC2)c1 [GS‐4997, Selonsertib, reference compound]",Cytotoxicity (cell viability),MRC‐5,reduced cell viability at higher doses; also recorded: high‐dose cytotoxicity
same,Outcome of phase III NASH trial,NASH [8],failed
same,Cell protection (cell viability normalized to PA-treated cells),L02 cells; 0.32–10 μmol/L drug,only protected against cell death at lower doses
same,Cell viability at high drug doses,L02 cells; 5 and 10 μmol/L drug,reduced cell viability in a dose‐dependent manner
same,Outcome of DKD clinical trial,diabetic kidney disease,did not meet its primary endpoint
same,CKD-related characteristics and kidney function,[9],"barely improved CKD‐related characteristics, but preserved kidney function"
same,Cytotoxicity (cell viability),CCC‐HEL‐1,reduced cell viability at higher doses
same,Area of kidney fibrosis (Masson staining),UUO mouse model,tendency to reduce
same,Serum creatinine vs model group,UUO mouse model,non‐significant tendency to decrease
same,Serum urea nitrogen vs model group,UUO mouse model,significantly reduced
O=C(Nc1cccc(-c2nncn2C2CC2)c1)c1cc(-n2cnc(C3CC3)c2)ccn1 [GS‐444217],Kidney fibrosis,UUO model,attenuate kidney fibrosis
same,NASH symptoms,NASH [10],significantly ameliorated NASH symptoms
same,Glomerular sclerosis progression,DKD,halt the progression of glomerular sclerosis
